Source: US12723063B2, “GIPR-agonist compounds” (Eli Lilly and Company, priority 2019, dated 2026)
*1 amine or outer side, *2 acyl side, *3 side chain or, on linkers, in order; H or OH if unused. Where a SMILES comes first, the peptide text is derived from it. Side-chain parts run from the residue outwards. [ ]: non-standard residue; d: D form. The star is where a group is joined. C20 diacid = O=C(O)CCCCCCCCCCCCCCCCCCC(=O)*; αMePhe(2-F) = C[C@](N)(Cc1ccccc1F)C(=O)O; γGlu = O=C(O)[C@H](CCC(=O)[*:2])N[*:1]; αMeF = C[C@](N)(Cc1ccccc1)C(=O)O; 4Pal = N[C@@H](Cc1ccncc1)C(=O)O; αMeL = CC(C)C[C@](C)(N)C(=O)O; AEEA = NCCOCCOCC(=O)O; Aib = CC(C)(N)C(=O)O

How the values were obtained:
[1] = target: T1, human GcgR (Homo sapiens, UniProt P47871); test: [125I]-Glucagon binding, SPA with WGA beads, 0.1% bacitracin; conditions: geometric mean, read-out: hGcgR Ki
T1 construct: expressed in transfected cells; crude membranes
T1 sequence (P47871 26-477): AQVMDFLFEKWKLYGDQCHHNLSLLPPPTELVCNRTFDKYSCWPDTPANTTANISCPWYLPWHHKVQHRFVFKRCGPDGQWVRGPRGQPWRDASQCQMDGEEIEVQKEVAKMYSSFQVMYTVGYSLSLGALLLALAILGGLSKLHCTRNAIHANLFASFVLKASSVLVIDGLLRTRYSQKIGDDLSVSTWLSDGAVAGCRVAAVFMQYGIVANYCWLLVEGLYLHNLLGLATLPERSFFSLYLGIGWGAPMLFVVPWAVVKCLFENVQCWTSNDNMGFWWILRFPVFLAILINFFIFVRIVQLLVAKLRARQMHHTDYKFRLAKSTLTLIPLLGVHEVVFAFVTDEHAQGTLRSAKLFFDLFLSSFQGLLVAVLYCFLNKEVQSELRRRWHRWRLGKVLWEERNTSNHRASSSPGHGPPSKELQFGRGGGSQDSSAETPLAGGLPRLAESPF
Outline: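 SPA competition binding with WGA beads on crude membranes from HEK293 cells stably expressing hGcgR. Buffer: 25 mM HEPES pH 7.4, 2.5 mM CaCl2, 1 mM MgCl2, 0.1% bacitracin, 0.003% Tween-20; 10-point 3-fold dilutions, NSB with 1 μM Gcg.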

[2] = target: T2, human GLP-1R (Homo sapiens, UniProt P43220); test: [125I]-GLP-1 binding, SPA with WGA beads, 0.1% bacitracin; conditions: geometric mean, read-out: hGLP1R Ki
T2 construct: expressed in transfected cells; crude membranes
T2 sequence (P43220 24-463): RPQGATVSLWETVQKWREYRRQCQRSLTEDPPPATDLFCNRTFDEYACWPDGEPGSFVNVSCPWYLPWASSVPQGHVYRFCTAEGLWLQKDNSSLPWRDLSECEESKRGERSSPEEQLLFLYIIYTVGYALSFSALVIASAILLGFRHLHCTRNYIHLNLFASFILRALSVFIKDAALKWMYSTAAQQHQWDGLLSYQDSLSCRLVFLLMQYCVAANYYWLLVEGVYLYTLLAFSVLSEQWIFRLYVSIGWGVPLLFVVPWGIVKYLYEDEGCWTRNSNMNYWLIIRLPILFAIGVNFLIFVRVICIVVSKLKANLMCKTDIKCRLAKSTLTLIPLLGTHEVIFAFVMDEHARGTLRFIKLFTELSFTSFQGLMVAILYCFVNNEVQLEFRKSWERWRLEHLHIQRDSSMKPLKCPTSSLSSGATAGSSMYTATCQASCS
Outline: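 Binding buffer was 25 mM HEPES pH 7.4 with 2.5 mM CaCl2, 1 mM MgCl2, 0.1% (w/v) bacitracin, 0.003% Tween-20 and EDTA-free protease inhibitors. Four-parameter regression gave IC50, converted to Ki (geometric mean, SEM, n independent days).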

[3] = target: T3, human GLP-1 receptor (GLP-1R) (Homo sapiens, UniProt P43220); test: cAMP functional assay (HTRF) in HEK293 cells in presence of 0.1% casein; type: cell-based; conditions: HEK293 cells expressing human GLP-1R, geometric mean, read-out: hGLP1R cAMP Rel EC50 nM (SEM, n)
T3 construct: expressed in transfected cells; host or cells: HEK293
T3 sequence (P43220 24-463): as above

Compound	Ki [1] [nM]	Ki [2] [nM]	EC50 [3] [nM]
CC[C@H](C)[C@H](NC(=O)[C@H](CO)NC(=O)[C@H](Cc1ccc(O)cc1)NC(=O)[C@H](CC(=O)O)NC(=O)[C@H](CO)NC(=O)[C@@H](NC(=O)[C@](C)(Cc1ccccc1)NC(=O)[C@@H](NC(=O)CNC(=O)[C@H](CCC(=O)O)NC(=O)C(C)(C)NC(=O)[C@@H](N)Cc1ccc(O)cc1)[C@@H](C)O)[C@@H](C)CC)C(=O)N[C@@](C)(CC(C)C)C(=O)N[C@@H](CC(C)C)C(=O)N[C@@H](CC(=O)O)C(=O)N[C@@H](CCCCN)C(=O)N[C@@H](CCCCNC(=O)COCCOCCNC(=O)COCCOCCNC(=O)CC[C@H](NC(=O)CCCCCCCCCCCCCCCCCCC(=O)O)C(=O)O)C(=O)N[C@@H](Cc1c[nH]cn1)C(=O)N[C@@H](CCC(N)=O)C(=O)NC(C)(C)C(=O)N[C@@H](CC(=O)O)C(=O)N[C@@H](Cc1ccccc1)C(=O)N[C@H](C(=O)N[C@@H](CCC(=O)O)C(=O)N[C@@H](Cc1ccncc1)C(=O)N[C@@H](CC(C)C)C(=O)N[C@@H](CC(C)C)C(=O)N[C@@H](C)C(=O)NCC(=O)NCC(=O)N1CCC[C@H]1C(=O)N[C@@H](CO)C(=O)N[C@@H](CO)C(=O)NCC(=O)N[C@@H](C)C(=O)N1CCC[C@H]1C(=O)N1CCC[C@H]1C(=O)N1CCC[C@H]1C(=O)N[C@@H](CO)C(N)=O)C(C)C [Example 50] (H-Y[Aib]EGT[αMeF]ISDYSI[αMeL]LDKK([AEEA-AEEA-γGlu-C20 diacid])HQ[Aib]DFVE[4Pal]LLAGGPSSGAPPPS-NH2)	23.4	34.9	41
CC[C@H](C)[C@H](NC(=O)[C@H](CO)NC(=O)[C@H](Cc1ccc(O)cc1)NC(=O)[C@H](CC(=O)O)NC(=O)[C@H](CO)NC(=O)[C@@H](NC(=O)[C@](C)(Cc1ccccc1F)NC(=O)[C@@H](NC(=O)CNC(=O)[C@H](CCC(=O)O)NC(=O)C(C)(C)NC(=O)[C@@H](N)Cc1ccc(O)cc1)[C@@H](C)O)[C@@H](C)CC)C(=O)N[C@@](C)(CC(C)C)C(=O)N[C@@H](CC(C)C)C(=O)N[C@@H](CC(=O)O)C(=O)N[C@@H](CCCCN)C(=O)N[C@@H](CCCCNC(=O)COCCOCCNC(=O)COCCOCCNC(=O)CC[C@H](NC(=O)CCCCCCCCCCCCCCCCCCC(=O)O)C(=O)O)C(=O)N[C@@H](Cc1c[nH]cn1)C(=O)N[C@@H](CCC(N)=O)C(=O)NC(C)(C)C(=O)N[C@@H](CC(=O)O)C(=O)N[C@@H](Cc1ccccc1)C(=O)N[C@H](C(=O)N[C@@H](CCC(=O)O)C(=O)N[C@@H](Cc1ccncc1)C(=O)N[C@@H](CC(C)C)C(=O)N[C@@H](CC(C)C)C(=O)N[C@@H](C)C(=O)NCC(=O)NCC(=O)N1CCC[C@H]1C(=O)N[C@@H](CO)C(=O)N[C@@H](CO)C(=O)NCC(=O)N[C@@H](C)C(=O)N1CCC[C@H]1C(=O)N1CCC[C@H]1C(=O)N1CCC[C@H]1C(=O)N[C@@H](CO)C(N)=O)C(C)C [Example 51] (H-Y[Aib]EGT[αMePhe(2-F)]ISDYSI[αMeL]LDKK([AEEA-AEEA-γGlu-C20 diacid])HQ[Aib]DFVE[4Pal]LLAGGPSSGAPPPS-NH2)	26.7	54.1	24.7
CC[C@H](C)[C@H](NC(=O)[C@H](Cc1ccccc1)NC(=O)[C@@H](NC(=O)CNC(=O)[C@H](CCC(=O)O)NC(=O)C(C)(C)NC(=O)[C@@H](N)Cc1ccc(O)cc1)[C@@H](C)O)C(=O)N[C@@H](CO)C(=O)N[C@@H](CC(=O)O)C(=O)N[C@@H](Cc1ccc(O)cc1)C(=O)N[C@@H](CO)C(=O)N[C@H](C(=O)N[C@@](C)(CC(C)C)C(=O)N[C@@H](CC(C)C)C(=O)N[C@@H](CC(=O)O)C(=O)N[C@@H](CCCCN)C(=O)N[C@@H](CCCCNC(=O)COCCOCCNC(=O)COCCOCCNC(=O)CC[C@H](NC(=O)CCCCCCCCCCCCCCCCCCC(=O)O)C(=O)O)C(=O)N[C@@H](Cc1c[nH]cn1)C(=O)N[C@@H](CCC(N)=O)C(=O)NC(C)(C)C(=O)N[C@@H](CCC(=O)O)C(=O)N[C@@H](Cc1ccccc1)C(=O)N[C@H](C(=O)N[C@@H](CCC(=O)O)C(=O)N[C@@H](Cc1ccncc1)C(=O)N[C@@H](CC(C)C)C(=O)N[C@@H](CC(C)C)C(=O)N[C@@H](C)C(=O)NCC(=O)NCC(=O)N1CCC[C@H]1C(=O)N[C@@H](CO)C(=O)N[C@@H](CO)C(=O)NCC(=O)N[C@@H](C)C(=O)N1CCC[C@H]1C(=O)N1CCC[C@H]1C(=O)N1CCC[C@H]1C(=O)N[C@@H](CO)C(N)=O)C(C)C)[C@@H](C)CC [Example 52]	114	128	> 5000
CC[C@H](C)[C@H](NC(=O)[C@H](Cc1ccccc1)NC(=O)[C@@H](NC(=O)CNC(=O)[C@H](CCC(=O)O)NC(=O)C(C)(C)NC(=O)[C@@H](N)Cc1ccc(O)cc1)[C@@H](C)O)C(=O)N[C@@H](CO)C(=O)N[C@@H](CC(=O)O)C(=O)N[C@@H](Cc1ccc(O)cc1)C(=O)N[C@@H](CO)C(=O)N[C@H](C(=O)N[C@@](C)(CC(C)C)C(=O)N[C@@H](CC(C)C)C(=O)N[C@@H](CC(=O)O)C(=O)N[C@@H](CCCCN)C(=O)N[C@@H](CCCCNC(=O)COCCOCCNC(=O)COCCOCCNC(=O)CC[C@H](NC(=O)CCCCCCCCCCCCCCCCCCC(=O)O)C(=O)O)C(=O)N[C@@H](Cc1c[nH]cn1)C(=O)N[C@@H](CCC(N)=O)C(=O)NC(C)(C)C(=O)N[C@@H](CC(=O)O)C(=O)N[C@@H](Cc1ccccc1)C(=O)N[C@H](C(=O)N[C@@H](CCC(=O)O)C(=O)N[C@@H](Cc1ccc(O)cc1)C(=O)N[C@@H](CC(C)C)C(=O)N[C@@H](CC(C)C)C(=O)N[C@@H](C)C(=O)NCC(=O)NCC(=O)N1CCC[C@H]1C(=O)N[C@@H](CO)C(=O)N[C@@H](CO)C(=O)NCC(=O)N[C@@H](C)C(=O)N1CCC[C@H]1C(=O)N1CCC[C@H]1C(=O)N1CCC[C@H]1C(=O)N[C@@H](CO)C(N)=O)C(C)C)[C@@H](C)CC [Example 53] (H-Y[Aib]EGTFISDYSI[αMeL]LDKK([AEEA-AEEA-γGlu-C20 diacid])HQ[Aib]DFVEYLLAGGPSSGAPPPS-NH2)	152	62.9	> 5000
CC[C@H](C)[C@H](NC(=O)[C@H](Cc1ccccc1)NC(=O)[C@@H](NC(=O)CNC(=O)[C@H](CCC(=O)O)NC(=O)C(C)(C)NC(=O)[C@@H](N)Cc1ccc(O)cc1)[C@@H](C)O)C(=O)N[C@@H](CO)C(=O)N[C@@H](CC(=O)O)C(=O)N[C@@H](Cc1ccc(O)cc1)C(=O)N[C@@H](CO)C(=O)N[C@H](C(=O)N[C@@](C)(CC(C)C)C(=O)N[C@@H](CC(C)C)C(=O)N[C@@H](CC(=O)O)C(=O)N[C@@H](CCCCN)C(=O)N[C@@H](CCCCNC(=O)COCCOCCNC(=O)COCCOCCNC(=O)CC[C@H](NC(=O)CCCCCCCCCCCCCCCCCCC(=O)O)C(=O)O)C(=O)N[C@@H](Cc1c[nH]cn1)C(=O)N[C@@H](CCC(N)=O)C(=O)NC(C)(C)C(=O)N[C@@H](CC(=O)O)C(=O)N[C@@H](Cc1ccccc1)C(=O)N[C@H](C(=O)N[C@@H](CCC(=O)O)C(=O)N[C@@H](Cc1c[nH]c2ccccc12)C(=O)N[C@@H](CC(C)C)C(=O)N[C@@H](CC(C)C)C(=O)N[C@@H](C)C(=O)NCC(=O)NCC(=O)N1CCC[C@H]1C(=O)N[C@@H](CO)C(=O)N[C@@H](CO)C(=O)NCC(=O)N[C@@H](C)C(=O)N1CCC[C@H]1C(=O)N1CCC[C@H]1C(=O)N1CCC[C@H]1C(=O)N[C@@H](CO)C(N)=O)C(C)C)[C@@H](C)CC [Example 54] (H-Y[Aib]EGTFISDYSI[αMeL]LDKK([AEEA-AEEA-γGlu-C20 diacid])HQ[Aib]DFVEWLLAGGPSSGAPPPS-NH2)	386	49.9	> 5000
